Source: patent US20090270401A1, “USE OF A DIHYDROIMIDAZOPYRAZOINE DERIVATIVE FOR TREATING OR PREVENTING PAIN” (Societe de Conseils de Recherches et D'Applications …, priority 2004, published 2009)

Key:
Format in all cases: in vivo
[1] = system: carrageenin-induced inflammatory hyperalgesia in a rat's paw; test: Model of carrageenin-induced inflammatory hyperalgesia (Randall-Selitto test)
Protocol: The activity of compound (I) or its salt according to the invention has been evaluated in vivo on a model of carrageenin-induced inflammatory hyperalgesia in a rat's paw.
Male Sprague Dawley (Charles River) rats weighing approximately 200 g are housed for 5 to 8 days under animal room conditions and fasted on grids for 18 hours before and during the experiment. 4 groups are constituted by at least 6 animals. The products are administered by intravenous route (i.v., 1 ml/kg) 2 hours 30 minutes after the injection of carrageenin. Carrageenin at a concentration of 2 mg/0.1 ml was injected by sub-plantar route in the right rear paw of the rats (0.1 ml was injected per animal). The pain threshold (or nociceptive threshold) was evaluated by measuring the withdrawal of the rat's paw caused by a mechanical stimulus of increasing pressure (initial pressure 210 g/mm^2) applied using an analgesy meter (Randall-Selitto test). The measurements were taken just before the injection of carrageenin (t=−2 hours 30 minutes) and then at time 0.5 hours, 2 hours 30 minutes and 4 hours after injection of the products to be tested, which was carried out at t=0.
(§1) This effectiveness is statistically determined by a variance analysis test (one route) and/or a Dunnett's test (two routes).
The effective dose (ED50) was determined. By ED50, is meant the dose which reduces by half the pain induced in the model tested.

[2] = system: neuropathy induced by chronic constriction injury on the rat's paw; test: Model of neuropathy induced by sciatic nerve lesion (chronic constriction injury), Randall-Selitto test
Protocol: The activity of compound (I) or its salt according to the invention was evaluated in vivo on a model of neuropathy induced by chronic constriction injury on the rat's paw.
Male Sprague Dawley (Charles River) rats weighing approximately 200 g are housed for 6 days under animal room conditions. Before the start of the experiment (day zero) the pain threshold (or nociceptive threshold) was evaluated by measuring the withdrawal of the rat's paw caused by a mechanical stimulus (initial pressure 210 g/mm^2) applied using an analgesy meter (Randall-Selitto test). This threshold is the pain base threshold. Then, also on day zero, the rats are rendered neuropathic by chronic constriction injury according to the Bennett and Xies (1988) method: 4 ligatures spaced at approximately 2 mm (monocryl suture; 5.0) are carried out on the sciatic nerve of the rat's right paw, above the trifurcation. This operation is carried out under general anaesthetic using isoflurane. […] On day 14 after the operation, the pain threshold was re-evaluated. […] The readings are taken at the following times: 0.5 hours 2.5 hours and 4 hours after injection of compound (I). […]
as §1
The effective dose (ED50) was determined. […]

[3] = system: neuropathy induced by administration of an anti-cancer agent (paclitaxel (taxol)), on a rat's paw; test: Model of neuropathy induced by administration of an anti-cancer agent (paclitaxel), Randall-Selitto test; conditions: significantly increased
Protocol: The activity of compound (I) or its salt according to the invention was evaluated in vivo on a model of neuropathy induced by administration of an anti-cancer agent (paclitaxel (taxol)), on a rat's paw.
Male Sprague Dawley (Charles River) rats weighing approximately 200 g are housed for 6 days under animal room conditions. 3 groups are constituted by at least 10 animals.
The neuropathy is induced by intra-peritoneal injections (i.p.) of 2 mg/kg of paclitaxel (extract of Taxus Yannanensis) on days D0, D2, D4 and D7.
Before the first injection, the rats are numbered and weighed and nociception is evaluated after a mechanical stimulus of increasing pressure: induction of an initial pressure (210 g/m^2) on the rats' two rear paws carried out using an analgesy meter according to the Randall and Selitto method. These measurements allow the base values to be defined before development of the neuropathy (D0). […]
On the day of the experiment, the rats are weighed, nociception is measured and the animals which have not developed the neuropathy on this day (reduction of nociception in comparison with the readings on D0) are excluded from the study. The product being tested is administered and nociception is measured at different times after its administration.

[4] = Rattus norvegicus, iv, at time 0.5 hours, read-out: ED50 (dose which reduces by half the pain induced)

What does the source list for `N[C@@H](CSSC[C@H](N)C(=O)N1CCn2cc(-c3ccccc3)nc2[C@@H]1CC1CCCCC1)C(=O)N1CCn2cc(-c3ccccc3)nc2[C@@H]1CC1CCCCC1` [Compound (I), (1R)-1-[({(2R)-2-amino-3-[(8S)-8-(cyclohexylmethyl)-2-phenyl-5,6-dihydroimidazo[1,2-a]pyrazin-7(8H)-yl]-3-oxopropyl}dithio)methyl]-2-[(8S)-8-(cyclohexylmethyl)-2-phenyl-5,6-dihydroimidazo[1,2-a]pyrazin-7(8H)-yl]-2-oxoethylamine]?
pain threshold following a mechanical stimulus applied to the rats' paws ([1]; 1 mg/kg i.v., time 0.5 hours, control 240 g/mm^2, significantly increased): approximately 400 g/mm^2; ED50 [1, 4]: 0.42 mg/kg; pain threshold following a mechanical stimulus applied to the rats' paws ([2]; 3 mg/kg i.v., time 0.5 hours, day 14 after operation, control 200 g/mm^2, significantly increased): approximately 320 g/mm^2; ED50 [2, 4]: 2.5 mg/kg; pain threshold following a mechanical stimulus applied on the rats' paws ([3]; 3 mg/kg i.v., time 0.5 hours, paclitaxel alone 250 g/mm^2): approximately 370 g/mm^2; pain threshold following a mechanical stimulus applied to the rats' paws ([3]; 100 mg/kg p.o., time 1 hour, paclitaxel alone 240 g/mm^2): approximately 400 g/mm^2
